Measured values published in article PMC11938014, “Development and Application of Small Molecule–Peptide Conjugates as Cathepsin K-Specific Covalent Irreversible Inhibitors in Human Osteoclast and Lung Cancer” (JACS Au, 2025).
Read-outs that look alike come from different tables or passages of the source.

Legend:
Experiment in all cases: Recombinant cathepsin inhibition, gel-based competition with GB123 probe
Type in all cases: biochemical
[1] = biological target: T1, Recombinant human cathepsin K (Homo sapiens, UniProt P43235); conditions: for loss of potency compared to GD20: diastereomers of GD20 with D amino acids
T1 construct: made in house
T1 sequence (P43235 115-329): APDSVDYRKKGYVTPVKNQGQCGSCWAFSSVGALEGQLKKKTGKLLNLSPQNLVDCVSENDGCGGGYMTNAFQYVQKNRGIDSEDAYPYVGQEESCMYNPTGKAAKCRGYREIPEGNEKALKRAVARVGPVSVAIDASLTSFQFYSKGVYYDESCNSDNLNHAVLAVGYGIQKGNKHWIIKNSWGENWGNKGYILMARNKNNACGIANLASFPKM
Method: (§1) In-gel fluorescence analysis was used to detect the residual activity of the cathepsins by applying pan-cathepsin probe GB123 to detect the stable enzyme–probe complex. This approach is used for testing inhibition and selectivity.[37],[41]
(§2) Recombinant human cathepsin L (0.5 μM), cathepsin B (0.5 μM), cathepsin K (0.5 μM), and cathepsin S (0.5 μM) were pretreated with different concentrations of inhibitors (GD compounds, odanacatib) for 1 h in reaction buffer (50 mM acetate, 2 mM dithiothreitol (DTT), and 5 mM MgCl2, pH 5.5) at 37 °C. GB123 (1 μM) was added and incubated with samples for 60 min at 37 °C.[37],[41] The reaction was stopped by the addition of sample buffer 4× (40% glycerol, 0.2 M Tris/HCl pH 6.8, 20% β-mercaptoethanol, 12% SDS, and 0.4 mg/mL bromophenol blue). Samples were then boiled, separated on a 12.5% SDS gel, and scanned for fluorescence by a Typhoon scanner FLA 9500 at excitation and emission wavelengths of 635 and 670 nm for GB123.
(§3) graphs were generated in GraphPad Prism software.

[2] = biological target: T2, Recombinant human cathepsin L (Homo sapiens, UniProt P07711)
T2 construct: made in house
T2 sequence (P07711 114-333): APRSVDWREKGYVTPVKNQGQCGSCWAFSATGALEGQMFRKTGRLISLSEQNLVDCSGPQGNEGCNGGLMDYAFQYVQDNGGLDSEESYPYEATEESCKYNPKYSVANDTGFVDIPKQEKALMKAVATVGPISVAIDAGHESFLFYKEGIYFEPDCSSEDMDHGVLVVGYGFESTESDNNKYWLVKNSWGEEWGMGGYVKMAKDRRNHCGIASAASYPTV
Method: as §1, §2, §3

[3] = biological target: T3, Recombinant human cathepsin B (Homo sapiens, UniProt P07858)
T3 construct: made in house
Method: as §1, §2, §3

[4] = Table S2, three independent competition gel-based experiments, read-out: CTSK (IC50)
[5] = Table S2, three independent competition gel-based experiments, read-out: CTSL (IC50)
[6] = Table S2, three independent competition gel-based experiments, read-out: CTSB (IC50)

| Compound | IC50 [1, 4] [µM] | IC50 [2, 5] [µM] | IC50 [3, 6] [µM] | loss of potency compared to GD20 [1] | IC50 ([2]; Figure 1, gel-based GB123 competition, read-out: Activity [μM] CTSL (IC50)) [µM] | IC50 ([1]; Figure 1, gel-based GB123 competition, read-out: Activity [μM] CTSK (IC50)) [µM] | IC50 ([3]; Figure 1, gel-based GB123 competition, read-out: Activity [μM] CTSB (IC50)) [µM] |
| --- | --- | --- | --- | --- | --- | --- | --- |
| Cc1cccc(C)c1C(=O)OCC(=O)[C@H](CCCCN)NC(=O)[C@H](Cc1ccccc1)NC(=O)OCc1ccccc1 [GB111-NH2, reference compound] | 4.4 ± 0.9 | 0.25 ± 0.04 | 0.4 ± 0.06 | – | – | – | – |
| CC(C)C[C@H](N[C@@H](c1ccc(-c2ccc(S(C)(=O)=O)cc2)cc1)C(F)(F)F)C(=O)NCC(=O)COC(=O)CNC(=O)OCC1c2ccccc2-c2ccccc21 [GD27] | 1 ± 0.07 | > 5 | > 5 | – | – | – | – |
| Cc1cccc(C)c1C(=O)OCC(=O)[C@H](CCCCN)NC(=O)[C@H](CC(C)C)NC(=O)CNC(=O)OCc1ccccc1 [GD12] | 0.8 ± 0.1 | 1.6 ± 0.22 | 1 ± 0.13 | – | – | – | – |
| CC(C)C[C@H](NC(=O)OCC1c2ccccc2-c2ccccc21)C(=O)N1CCC[C@H]1C(=O)OCC(=O)CNC(=O)[C@@H](CC(C)C)N[C@@H](c1ccc(-c2ccc(S(C)(=O)=O)cc2)cc1)C(F)(F)F [GD39] | 3.9 ± 0.7 | – | – | 4–9 times | – | – | – |
| CC(C)C[C@H](N[C@@H](c1ccc(-c2ccc(S(=O)(=O)NC(=O)OC(C)(C)C)cc2)cc1)C(F)(F)F)C(=O)NCC(=O)COC(=O)[C@@H]1CCCN1C(=O)[C@H](CC(C)C)NC(=O)OCC1c2ccccc2-c2ccccc21 [GD31] | 0.9 ± 0.1 | > 20 | 0.24 ± 0.1 | – | – | – | – |
| NCCCC[C@H](NC(=O)[C@@H]1CCCN1C(=O)CNC(=O)OCc1ccccc1)C(=O)CSc1c(F)c(F)cc(F)c1F [GD15] | 5.5 ± 1 | 2 ± 0.15 | > 5 | – | > 5 | – | – |
| CC(C)C[C@H](NC(=O)OCC1c2ccccc2-c2ccccc21)C(=O)N1CCC[C@H]1C(=O)OCC(=O)CNC(=O)[C@H](CCCCNC(=O)OC(C)(C)C)N[C@@H](c1ccc(-c2ccc(S(C)(=O)=O)cc2)cc1)C(F)(F)F [GD29] | > 5 | 1.6 ± 0.5 | > 5 | – | – | – | – |
| CC(C)C[C@H](N[C@@H](c1ccc(-c2ccc(CCNC(=O)OC(C)(C)C)cc2)cc1)C(F)(F)F)C(=O)NCC(=O)COC(=O)[C@@H]1CCCN1C(=O)[C@H](CC(C)C)NC(=O)OCC1c2ccccc2-c2ccccc21 [GD34] | 0.9 ± 0.06 | > 5 | 5 ± 0.1 | – | – | – | – |
| CC(C)C[C@H](N[C@@H](c1ccc(-c2ccc(S(C)(=O)=O)cc2)cc1)C(F)(F)F)C(=O)NCC(=O)CSc1c(F)c(F)cc(F)c1F [GD9] | 0.5 ± 0.05 | > 5 | 5.1 ± 0.55 | – | – | – | – |
| C#CCNC(=O)[C@H](CC(C)C)N[C@@H](c1ccc(-c2ccc(S(=O)(=O)NC(=O)OC(C)(C)C)cc2)cc1)C(F)(F)F [GD33] | > 20 | 4.4 ± 0.8 | > 20 | – | – | – | – |
| CC(C)C[C@H](NC(=O)OCC1c2ccccc2-c2ccccc21)C(=O)N1CCC[C@H]1C(=O)OCC(=O)CNC(=O)[C@H](CC1CCCCC1)N[C@@H](c1ccc(-c2ccc(S(C)(=O)=O)cc2)cc1)C(F)(F)F [GD28] | > 5 | > 5 | > 5 | – | – | – | – |
| CC(C)C[C@H](N[C@@H](c1ccc(-c2ccc(S(C)(=O)=O)cc2)cc1)C(F)(F)F)C(=O)NCC(=O)COc1c(F)c(F)cc(F)c1F [GD8] | 0.68 ± 0.08 | 3.6 ± 0.04 | 2.2 ± 0.35 | – | – | – | – |
| NCCCC[C@H](NC(=O)[C@H](Cc1ccccc1)NC(=O)OCc1ccccc1)C(=O)CSc1c(F)c(F)cc(F)c1F [GD10] | 0.65 ± 0.01 | 0.19 ± 0.1 | 0.66 ± 0.02 | – | – | – | – |
| Cc1cccc(C)c1C(=O)OCC(=O)[C@H](CCCCN)NC(=O)[C@@H]1CCCN1C(=O)CNC(=O)OCc1ccccc1 [GD13] | 2.7 ± 0.35 | > 5 | 4 ± 0.15 | – | – | 3.6 ± 0.5 | 1.95 ± 0.35 |
| NCCCC[C@H](NC(=O)[C@@H]1CCCN1C(=O)CNC(=O)OCc1ccccc1)C(=O)COc1c(F)c(F)cc(F)c1F [GD14] | 0.3 ± 0.03 | > 5 | 0.8 ± 0.25 | – | – | – | – |
| Cc1cccc(C)c1C(=O)OCC(=O)CNC(=O)[C@H](CC(C)(C)F)N[C@@H](c1ccc(-c2ccc(NC(=O)OC(C)(C)C)cc2)cc1)C(F)(F)F [GD6] | 1.6 ± 0.35 | > 5 | 1.7 ± 0.35 | – | – | – | – |
| Cc1cccc(C)c1C(=O)OCC(=O)CNC(=O)[C@@H]1CCCN1C(=O)CNC(=O)OCc1ccccc1 [GD16] | 1.8 ± 0.25 | > 5 | 2.8 ± 0.6 | – | – | – | – |
| CC(C)C[C@H](N[C@@H](c1ccc(-c2ccc(NC(=O)OC(C)(C)C)cc2)cc1)C(F)(F)F)C(=O)NCC(=O)COC(=O)[C@@H]1CCCN1C(=O)[C@H](CC(C)C)NC(=O)OCC1c2ccccc2-c2ccccc21 [GD26] | 1.4 ± 0.2 | > 5 | 6 ± 1.5 | – | – | – | – |
| Cc1cccc(C)c1C(=O)OCC(=O)CNC(=O)[C@H](CC(C)C)N[C@@H](c1ccc(-c2ccc(S(C)(=O)=O)cc2)cc1)C(F)(F)F [GD7] | 0.66 ± 0.01 | > 5 | 3.6 ± 0.03 | – | – | – | – |
| CC(C)C[C@H](N[C@H](c1ccc(-c2ccc(S(C)(=O)=O)cc2)cc1)C(F)(F)F)C(=O)NCC(=O)COC(=O)[C@@H]1CCCN1C(=O)[C@H](CC(C)C)NC(=O)OCC1c2ccccc2-c2ccccc21 [GD35] | 3.5 ± 0.5 | – | – | 4–9 times | – | – | – |
| CC(C)C[C@H](NC(=O)OCC1c2ccccc2-c2ccccc21)C(=O)N1CCC[C@H]1C(=O)OCC(=O)CNC(=O)[C@@H](CC(C)C)N[C@H](c1ccc(-c2ccc(S(C)(=O)=O)cc2)cc1)C(F)(F)F [GD40] | 3.5 ± 0.9 | – | – | 4–9 times | – | – | – |
| O=C(CNC(=O)[C@@H]1CCCN1C(=O)CNC(=O)OCc1ccccc1)CSc1c(F)c(F)cc(F)c1F [GD17] | 1.2 ± 0.11 | > 5 | > 5 | – | – | – | – |
